The values that follow come from US10934263B2, “Charged ion channel blockers and methods for use” (Nocion Therapeutics, Inc., priority 2019, dated 2021).

For series [1], the target named is T1, NaV1.7 (Homo sapiens, UniProt Q15858).
T1 construct: expressed in transfected cells; tetracycline-inducible, kept under hygromycin and blasticidin
Put plainly: Whole cell patch clamp, internal block of NaV1.7 current (compound in internal solution). The series is classed as cell-based. Particulars: % inhibition at 10 μM, compound applied internally, manual patch clamp; read-out: Nav1.7 Intracellular Inhibition. The method in brief: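 Tetracycline-induced NaV1.7 cells, whole-cell patch clamp at room temperature with compound in CsCl internal solution (pH 7.2), Ringer bath (pH 7.4). Held at −100 mV, steps to −20 mV; after baseline, four 30-s 5 Hz trains. Peak inward current at end of last train divided by baseline gives fraction remaining.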
A general note: In patch-clamp work, channel activity is measured electrically.

Series [2] can be described thus: PAMPA membrane permeability assay. The series is classed as in vitro ADME. Particulars: PAMPA permeability coefficient, GIT lipid, buffer pH 7.4, 4 hours incubation. The method in brief:
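Passive permeability across GIT lipid-coated artificial membrane; compounds at 50 μM in pH 7.4 buffer in donor wells, incubated 4 h. Donor, acceptor and reference concentrations read by UV spectroscopy, permeability coefficient calculated from spectral AUCs.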
In general terms: PAMPA measures passive passage across an artificial lipid membrane.

Series [3] addresses T1, NaV1.7. Put plainly: Whole cell patch clamp, external block of NaV1.7 current (compound in external solution). Type of series: cell-based. Conditions: % inhibition at test concentration 1,000 μM, compound applied externally; read-out: Nav1.7 Extracellular Inhibition. As for the experimental part: Representative compounds of the invention were synthesized according to the described methods and tested for the ability to inhibit voltage-gated sodium channels.
NaV1.7 was expressed upon induction with tetracycline. Cells were cultured in DMEM containing 10% dialyzed Fetal Bovine Serum (VWR, Radnor, Pa.), 1% Glutamax (VWR, Radnor, Pa.), 1% Penicillin-Streptomycin (VWR, Radnor, Pa.), 100 mg/L Hygromycin (Thermo Fisher Scientific, Waltham, Mass. and 5 mg/L Blasticidin (Alfa Aesar, Haverhill, Mass.). Cells were grown and maintained at 37° C. in a humidified environment containing 10% CO2 in air. Cells were detached from the culture flask for passage and harvested using 0.05% Trypsin-EDTA (Thermo Fisher Scientific, Waltham, Mass.). To induce NaV1.7, cells were induced with tetracycline (0.1-1 μg/mL, IBI Scientific, Peosta, Iowa) the day before recording and plated onto 24-well plates. Cells were washed with DPBS (VWR, Radnor, Pa.), trypsinized and then triturated five times in 10 mL of growth media to break apart cell aggregates. For one 24-well plate, 2 mL of cell suspension was mixed with 23 mL of fresh growth media and 0.1-1 μg/mL tetracycline added. 1 ml of mixed media with cells was then added to each well of a 24-well plate, with a 12 mm coverslip already placed in the bottom of the well. Cells were then incubated in 37° C. and 10% CO2 overnight.
The intracellular solution contained the following (in mM) CsCl 135, NaCl 10, EGTA 10, HEPES 10, MgCl2 2, adjusted to pH 7.2 with CsOH. The external solution was a normal Ringer solution containing (in mM) NaCl 155, HEPES 10, glucose 10, KCl 3.5, CaCl2 1.5, MgCl2 1 adjusted to pH 7.4 with NaOH. CsCl is from Alfa Aesar, Haverhill, Mass. All other chemicals are from Sigma-Aldrich, St. Louis, Mo. In order to test the degree of internal block by test compounds the compounds were dissolved in internal solution at the indicated test concentration. […] In order to test the degree of external block by test compounds the compounds were dissolved in external solution at the indicated test concentration.
18-24 hours after cells were induced with tetracycline, coverslips were placed into a chamber filled with Normal Ringer solution at room temperature and the chamber placed on a microscope. Pipettes were pulled from borosilicate glass on a P97 puller (Sutter Instrument, Novato, Calif.) and polished with a MF-830 Microforge (Narishige International USA, Inc, Amityville, N.Y.) to have a resistance of 1.5-2.5 MΩ when filled with CsCl internal solution at room temperature. Healthy cells (those that are round and translucent with no visible blemishes) were chosen for seal formation. A seal was formed between the pipette and the cell, and a brief pulse of suction was used to “break in” and establish the whole-cell configuration. The membrane potential was held at −100 mV before the voltage protocol began. Only cells with series resistance between 1.5-5 MΩ were retained for analysis. The voltage protocol was as follows: Cells were held at −100 mV for 12 ms followed by a hyperpolarizing step to −105 mV for 12 ms to monitor the leak. Cells were then stepped back to −100 mV for 40 ms. Cells were then depolarized to −20 mV for 10 ms and then returned to −100 mV for 26 ms.
Once the recording was started, the voltage protocol was run at 30 second intervals for 5 minutes to get a stable baseline. This is followed by 5 Hz stimulation of the same voltage protocol run until the end of experiment. […] The test compound is added for 5 minutes before washing out with normal Ringer's solution. Currents were recorded using PatchMaster software with Heka EPC10 (HEKA Electronics, Lambrecht, Germany). Only cells with inward current amplitudes at −20 mV between 400 pA and 4 nA were accepted. In addition, cells having leak currents greater than 10% of their current amplitudes were discarded. […]

T1 sequence (Q15858 whole entry): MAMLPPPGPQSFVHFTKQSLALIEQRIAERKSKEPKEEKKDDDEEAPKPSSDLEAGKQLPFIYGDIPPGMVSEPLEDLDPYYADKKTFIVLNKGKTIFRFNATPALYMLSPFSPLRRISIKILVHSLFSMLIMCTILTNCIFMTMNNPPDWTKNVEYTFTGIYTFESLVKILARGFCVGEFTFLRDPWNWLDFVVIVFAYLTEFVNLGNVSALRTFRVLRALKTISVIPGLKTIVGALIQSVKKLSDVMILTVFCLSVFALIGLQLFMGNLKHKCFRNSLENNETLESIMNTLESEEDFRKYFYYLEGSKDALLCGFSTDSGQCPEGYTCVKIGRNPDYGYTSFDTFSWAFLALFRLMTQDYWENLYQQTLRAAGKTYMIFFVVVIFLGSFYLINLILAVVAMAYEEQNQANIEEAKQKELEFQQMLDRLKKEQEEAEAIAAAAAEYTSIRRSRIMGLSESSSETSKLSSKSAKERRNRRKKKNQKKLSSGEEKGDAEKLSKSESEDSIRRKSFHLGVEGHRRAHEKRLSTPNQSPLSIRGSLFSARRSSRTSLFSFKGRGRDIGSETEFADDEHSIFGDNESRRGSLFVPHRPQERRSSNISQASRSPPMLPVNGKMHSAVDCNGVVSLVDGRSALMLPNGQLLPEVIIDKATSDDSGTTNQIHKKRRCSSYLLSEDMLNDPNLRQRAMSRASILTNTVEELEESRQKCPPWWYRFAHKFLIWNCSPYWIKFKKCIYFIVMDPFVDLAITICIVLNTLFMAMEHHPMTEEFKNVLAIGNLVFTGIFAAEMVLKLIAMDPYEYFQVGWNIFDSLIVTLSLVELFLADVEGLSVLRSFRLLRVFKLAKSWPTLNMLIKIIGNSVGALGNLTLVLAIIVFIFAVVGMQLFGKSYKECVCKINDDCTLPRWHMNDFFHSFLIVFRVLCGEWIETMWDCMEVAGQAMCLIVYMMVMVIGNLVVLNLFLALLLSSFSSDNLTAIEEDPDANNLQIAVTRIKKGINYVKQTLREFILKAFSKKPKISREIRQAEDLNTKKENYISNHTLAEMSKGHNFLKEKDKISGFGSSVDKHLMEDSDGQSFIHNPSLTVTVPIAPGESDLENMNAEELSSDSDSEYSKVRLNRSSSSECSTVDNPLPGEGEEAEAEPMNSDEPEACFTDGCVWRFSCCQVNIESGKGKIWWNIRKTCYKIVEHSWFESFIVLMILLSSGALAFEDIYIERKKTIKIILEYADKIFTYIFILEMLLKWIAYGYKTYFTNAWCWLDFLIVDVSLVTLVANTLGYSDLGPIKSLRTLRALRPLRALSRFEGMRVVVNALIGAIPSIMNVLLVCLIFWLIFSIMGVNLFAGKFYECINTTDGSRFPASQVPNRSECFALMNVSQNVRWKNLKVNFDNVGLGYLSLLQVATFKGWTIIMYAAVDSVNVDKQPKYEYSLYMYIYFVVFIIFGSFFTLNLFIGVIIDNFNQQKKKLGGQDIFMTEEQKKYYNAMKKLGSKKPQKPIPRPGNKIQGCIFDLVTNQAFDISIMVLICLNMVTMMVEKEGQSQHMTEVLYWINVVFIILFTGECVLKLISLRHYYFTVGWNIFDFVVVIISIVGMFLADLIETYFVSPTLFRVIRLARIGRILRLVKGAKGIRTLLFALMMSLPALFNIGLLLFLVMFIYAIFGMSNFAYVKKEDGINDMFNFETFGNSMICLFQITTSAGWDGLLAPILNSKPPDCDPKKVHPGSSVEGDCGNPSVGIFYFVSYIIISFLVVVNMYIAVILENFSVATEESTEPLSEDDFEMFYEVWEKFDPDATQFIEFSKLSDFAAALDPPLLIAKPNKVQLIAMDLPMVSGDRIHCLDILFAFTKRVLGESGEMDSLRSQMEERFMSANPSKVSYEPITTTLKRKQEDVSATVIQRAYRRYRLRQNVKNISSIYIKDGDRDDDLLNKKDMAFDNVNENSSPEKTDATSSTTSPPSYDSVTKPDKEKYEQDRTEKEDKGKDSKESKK

For the molecule `Cc1cccc(C)c1NC(=O)C[n+]1cc(OCc2ccccc2)ccc1Cl` [Compound 103], the inhibition at 10 µM in series [1] was over 95%. The “PAMPA (10^−6 cm/s)” value in series [2] is on record as “+ (<0.1 10^−6 cm/s)”.
In the same order, the values of `Cc1cccc(C)c1NC(=O)C[n+]1cccn1C1CCCC1` [Compound 71] are over 95% and “+ (<0.1 10^−6 cm/s)”.
On the same counts, the results for `CCCn1c(C)cc[n+]1CC(=O)Nc1c(C)cccc1C` [Compound 81] are 70 to 95% and “+ (<0.1 10^−6 cm/s)”.
As for `Cc1cccc(C)c1NC(=O)C[n+]1cc2ccccc2n1C` [Compound 54], the inhibition at 10 µM in series [1] fell in the range of 70 to 95%. Besides, the “PAMPA (10^−6 cm/s)” value in series [2] is reported as “++ (0.1-2.0 10^−6 cm/s)”.
Turning to `Cc1cccc(C)c1NC(=O)C[n+]1cccn1CC#N` [Compound 69], in series [1], the inhibition at 10 µM was in the range of 40 to 70%. Moreover, the “PAMPA (10^−6 cm/s)” value in series [2] is given as “+ (<0.1 10^−6 cm/s)”.
In the same order, the values of `CCCn1ccc(C)[n+]1CC(=O)Nc1c(C)cccc1C` [Compound 101] are 70 to 95% and “+ (<0.1 10^−6 cm/s)”.
Take `COc1cc(OC)c[n+](CC(=O)Nc2c(C)cccc2C)c1` [Compound 98]: the inhibition at 10 µM in series [1] fell in the range of 70 to 95%. In addition, the “PAMPA (10^−6 cm/s)” value in series [2] is listed as “+ (<0.1 10^−6 cm/s)”.
Regarding `Cc1cccc(C)c1NC(=O)C[n+]1c(C)cc(C)n1C` [Compound 94], the inhibition at 10 µM in series [1] was in the range of 70 to 95%. Also, the “PAMPA (10^−6 cm/s)” value in series [2] is on record as “+ (<0.1 10^−6 cm/s)”.
`Cc1cccc(C)c1NC(=O)C[n+]1cccc(Cc2ccccc2)c1` [Compound 34]: in series [1], the inhibition at 10 µM lay within 70 to 95%. The “PAMPA (10^−6 cm/s)” value in series [2] was “++ (0.1-2.0 10^−6 cm/s)”.
As for `Cc1cccc(C)c1NC(=O)C[n+]1cccn1CC1CC1` [Compound 73], in series [1], the inhibition at 10 µM was over 95%. Further, the “PAMPA (10^−6 cm/s)” value in series [2] is on record as “+ (<0.1 10^−6 cm/s)”.
Consider `CCOC(=O)CCCn1ccc[n+]1CC(=O)Nc1c(C)cccc1C` [Compound 75], for which the inhibition at 1000 µM in series [3] was under 40%. The inhibition at 10 µM in series [1] is over 95%. Moreover, in series [2], the “PAMPA (10^−6 cm/s)” value was “+ (<0.1 10^−6 cm/s)”.
Consider `Cc1cccc(C)c1NC(=O)Cn1ccc[n+]1CC(=O)Nc1c(C)cccc1C` [Compound 109], for which the inhibition at 1000 µM in series [3] is under 40%. Moreover, the inhibition at 10 µM in series [1] is over 95%. Also, in series [2], the “PAMPA (10^−6 cm/s)” value is listed as “+ (<0.1 10^−6 cm/s)”.
As for `Cc1cccc(C)c1NC(=O)C(CC(C)C)[n+]1ccccc1` (stereo not drawn) [Compound 108], the inhibition at 10 µM in series [1] lay in the range of 70 to 95%. Further, the “PAMPA (10^−6 cm/s)” value in series [2] is reported as “++ (0.1-2.0 10^−6 cm/s)”.
Regarding `CCn1ccc(C)[n+]1CC(=O)Nc1c(C)cccc1C` [Compound 95], the inhibition at 10 µM in series [1] was under 40%. In series [2], the “PAMPA (10^−6 cm/s)” value is given as “+ (<0.1 10^−6 cm/s)”.
On the same counts, the results for `COC(=O)c1c(F)c[n+](CC(=O)Nc2c(C)cccc2C)cc1F` [Compound 89] are 40 to 70% and “+ (<0.1 10^−6 cm/s)”.
For `Cc1cccc(C)c1NC(=O)C[n+]1cccc(N2CCCC2)c1` [Compound 51], the inhibition at 10 µM in series [1] was over 95%. Further, the “PAMPA (10^−6 cm/s)” value in series [2] was “++ (0.1-2.0 10^−6 cm/s)”.
On the same counts, the results for `CNC(=O)Cc1ccc[n+](CC(=O)Nc2c(C)cccc2C)c1` [Compound 33] are 70 to 95% and “++ (0.1-2.0 10^−6 cm/s)”.
Turning to `Cc1cccc(C)c1NC(=O)C(Cc1ccccc1)[n+]1ccccc1` (stereo not drawn) [Compound 106], the inhibition at 10 µM in series [1] is over 95%. The “PAMPA (10^−6 cm/s)” value in series [2] was “+ (<0.1 10^−6 cm/s)”.
Regarding `Cc1cccc(C)c1NC(=O)C[n+]1cccc(C(F)(F)F)c1` [Compound 66], in series [1], the inhibition at 10 µM is 70 to 95%. Besides, the “PAMPA (10^−6 cm/s)” value in series [2] is reported as “++ (0.1-2.0 10^−6 cm/s)”.
On the same counts, the results for `CCOC(=O)c1cc(C)[n+](CC(=O)Nc2c(C)cccc2C)n1C` [Compound 84] are 70 to 95% and “+ (<0.1 10^−6 cm/s)”.
Turning to `CCn1c(C)cc[n+]1CC(=O)Nc1c(C)cccc1C` [Compound 104], the inhibition at 10 µM in series [1] was in the range of 70 to 95%. Moreover, the “PAMPA (10^−6 cm/s)” value in series [2] was “+ (<0.1 10^−6 cm/s)”.
Take `Cc1cccc(C)c1NC(=O)C[n+]1cccc(S(=O)(=O)N(C)C)c1` [Compound 47]: in series [1], the inhibition at 10 µM was 70 to 95%. Also, the “PAMPA (10^−6 cm/s)” value in series [2] was “+ (<0.1 10^−6 cm/s)”.
In the same order, the values of `Cc1cccc(C)c1NC(=O)C[n+]1cc(F)cc(-c2ccccc2)c1` [Compound 77] are over 95% and “+ (<0.1 10^−6 cm/s)”.
For `CCNc1ccc[n+](CC(=O)Nc2c(C)cccc2C)c1` [Compound 50], the inhibition at 10 µM in series [1] is over 95%. The “PAMPA (10^−6 cm/s)” value in series [2] was “+ (<0.1 10^−6 cm/s)”.
Turning to `CCCCn1ccc[n+]1CC(=O)Nc1c(C)cccc1C` [Compound 83], the inhibition at 10 µM in series [1] is 70 to 95%. Besides, the “PAMPA (10^−6 cm/s)” value in series [2] is listed as “+ (<0.1 10^−6 cm/s)”.
On to `CCOC(=O)Cn1cc(C)c[n+]1CC(=O)Nc1c(C)cccc1C` [Compound 76], for which the inhibition at 1000 µM in series [3] is under 40%. Moreover, the inhibition at 10 µM in series [1] was in the range of 70 to 95%. Besides, the “PAMPA (10^−6 cm/s)” value in series [2] is “+ (<0.1 10^−6 cm/s)”.
For the molecule `Cc1cccc(C)c1NC(=O)C[n+]1cccc(S(C)(=O)=O)c1` [Compound 46], the inhibition at 10 µM in series [1] lay within 70 to 95%. Moreover, the “PAMPA (10^−6 cm/s)” value in series [2] is “+ (<0.1 10^−6 cm/s)”.

For orientation: inhibition means the percentage by which the read-out fell short of the control.
